US5532372A, “Imide derivatives, and their production and use” (Sumitomo Pharmaceuticals Company, Ltd., priority 1990, dated 1996)
Like-named read-outs stand apart in the source and are kept apart here.

Assays:
dopamine D2 receptor = biological target: T1, dopamine D2 receptor (Rattus norvegicus, UniProt P61169); test: Dopamine D2 receptor binding assay (in vitro), [3H] raclopride; details: at the concentration of 0.01 μM; Table 3; read-out: Antipsychotic activity (% inhibition), inhibition of [3H] raclopride binding to D2 receptors
T1 construct: from tissue; host or cells: rat corpus striatum, membrane fractions

in vivo = details: mouse, po
mice = test: Anti-climbing activity (in vivo), climbing behavior induced by apomorphine in mice; set-up: species or system mice (ddY strain male); details: Mus musculus, 1 h, read-out: ED50 (50% suppressive dose) of climbing behavior
From the text: (ii) Anti-climbing activity (in vivo)
This activity is examined through the anti-climbing behavior test, i.e. the test for suppressing the climbing behavior induced by apomorphine in mice.
A designed amount of the test compound is orally administered to several groups of ddY strain male mice (bodyweight, 20 to 25 g; one group, 5 mice), and each of the animals is placed in an individual column cage of 12 cm in diameter and 14 cm in height having metal poles (each pole, 2 mm in diameter) vertically installed and arranged along the periphery with intervals of 1 cm. After 60 minutes, apomorphine (1.0 mg/kg) is subcutaneously injected, and the behavior is observed during 10 to 20 minutes.
0 All the paws are on the floor
1 only forepaws seize the pole of the cage
2 All the paws seize the pole of the cage;
climbing behavior observed discontinuously
3 Continuous climbing behavior observed

[1] = Catalepsy inducing activity (extrapyramidal side-effect); set-up: species or system male mice; details: mouse, in vivo; oral, one hour later, mice; Table 5
From the text: A designated amount of the test compounds is orally administered to male mice, and one hour later a pair of forepaws are forcedly hanged on an iron pipe (diameter, 2.5 mm) horizontally set at a height of 5 cm. At least one cataleptic state of more than 30 second per three trials is regarded as positive.

[2] = oral, 60 minutes before apomorphine (1.0 mg/kg s.c.), mice, Table 4

T1 sequence (P61169 whole entry): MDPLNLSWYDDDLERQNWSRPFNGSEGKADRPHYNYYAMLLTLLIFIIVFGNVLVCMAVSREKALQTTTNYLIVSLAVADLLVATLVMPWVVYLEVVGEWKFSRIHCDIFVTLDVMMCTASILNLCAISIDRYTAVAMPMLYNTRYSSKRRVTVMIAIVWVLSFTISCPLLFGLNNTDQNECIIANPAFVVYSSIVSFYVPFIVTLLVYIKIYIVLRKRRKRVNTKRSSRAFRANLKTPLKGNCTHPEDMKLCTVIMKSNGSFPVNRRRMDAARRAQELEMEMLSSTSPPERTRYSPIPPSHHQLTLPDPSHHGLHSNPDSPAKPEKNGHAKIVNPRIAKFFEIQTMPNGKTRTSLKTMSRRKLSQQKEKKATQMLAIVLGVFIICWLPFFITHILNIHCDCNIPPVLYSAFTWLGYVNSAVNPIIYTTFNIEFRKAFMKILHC

| Structure (SMILES) | inhibition at 0.01 µM (dopamine D2 receptor) [%] | ED50 at 1 h (in vivo) [mg/kg] | ED50 (mice; [2]) [mg/kg] | ED50 at 1 h [1] [mg/kg] | ED50 (mice; po) [mg/kg] |
| --- | --- | --- | --- | --- | --- |
| O=C(CCCN1CCC(O)(c2ccc(Cl)cc2)CC1)c1ccc(F)cc1 [Haloperidol, reference compound] |  | 4.1 | 0.67 | 3.1 |  |
| CN(C)CCCN1c2ccccc2Sc2ccc(Cl)cc21 [Chlorpromazine, reference compound] |  |  |  | 18 | 4.2 |
| O=C1[C@@H]2[C@H]3CC[C@H](C3)[C@@H]2C(=O)N1C[C@@H]1CCCC[C@H]1CN1CCN(c2nsc3ccccc23)CC1 (relative stereo) [Compound No. 101] |  | > 1000 | 10.3 | 747 |  |

The next lines start with results.

| inhibition at 0.01 µM (dopamine D2 receptor) [%] | Structure (SMILES) | ED50 at 1 h (in vivo) [mg/kg] | ED50 (mice; [2]) [mg/kg] | ED50 at 1 h [1] [mg/kg] | ED50 (mice; po) [mg/kg] |
| --- | --- | --- | --- | --- | --- |
| 11 | O=C1[C@@H]2[C@H]3CC[C@H](C3)[C@@H]2C(=O)N1C[C@@H]1C[C@H]1CN1CCN(c2ncccn2)CC1 (relative stereo) [compound 163] |  |  |  |  |
| 90 | O=C1[C@@H]2[C@H]3CC[C@H](C3)[C@@H]2C(=O)N1C1CCCC(CN2CCN(c3nsc4ccccc34)CC2)C1 (stereo partly shown) [Compound No. 106] |  |  |  |  |
| 24 | O=C(c1ccc(F)cc1)C1CCN(C[C@@H]2C[C@H]2CN2C(=O)[C@H]3CCCC[C@H]3C2=O)CC1 (relative stereo) [compound 161] |  |  |  |  |
| 71 | O=C1[C@H]2CCCC[C@H]2C(=O)N1C[C@@H]1C[C@H]1CN1CCN(c2nsc3ccccc23)CC1 (relative stereo) [Compound No. 107] |  | 26.5 |  |  |
